# Reference: patent US20100216703A1, “Inhibitors of PDE4 and Methods of Use” (THE REGENTS OF THE UNIVERSITY OF CALIFORNIA, priority 2006, published 2010)
# “Also recorded” adds a separate entry of the source.
# B1: BDNF: Brainderived neurotrophic factor (protein, UniProt P23560 19-247, looked up)
# Neurotrophic factor BDNF …: APMKEANIRGQGGLAYPGVRTHGTLESVNGPKAGSRGLTSLADTFEHVIEELLDEDQKVRPNEENNKDADLYTSRVMLSSQVPLEPPLLFLLEEYKNYLDAANMSMRVRRHSDPARRGELSVCDSISEWVTAADKKTAVDMSGGTVTVLEKVPVSKGQLKQYFYETKCNPMGYTKEGCRGIDKRHWNSQCRTTQSYVRALTMDSKKRIGWRFIRIDTSCVCTLTIKRGR
# B2: endogenous PDE4A5 (PDE4A, 109 kD) of NIH3T3p75NTR cells (protein)
# chain: MEPPAAPSERSLSLSLPGPREGQATLKPPPQHLWRQPRTPIRIQQRGYSDSAERSEPERSPHRPIERADAVDTGDRPGLRTTRMSWPSSFHGTGTGGGSSRRLEAENGPTPSPGRSPLDSQASPGLMLHAGAATSQRRESFLYRSDSDYDMSPKTMSRNSSVASEAHGEDLIVTPFAQVLASLRNVRSNFSLLTNVPIPSNKRSPLGGPPSVCKATLSEETCQQLARETLEELDWCLEQLETMQTYRSVSEMASHKFKRMLNRELTHLSEMSRSGNQVSEYISNTFLDKQHEVEIPSPTPRQRPFQQPPPAAVQQAQPMSQITGLKKLVHTGSLNINVPRFGVKTDQEDLLAQELENLSKWGLNIFCVSEYAGGRSLSCIMYTIFQERDLLKKFHIPVDTMMTYMLTLEDHYHADVAYHNSLHAADVLQSTHVLLATPALDAVFTDLEILAALFAAAIHDVDHPGVSNQFLINTNSELALMYNDESVLENHHLAVGFKLLQEENCDIFQNLSKRQRQSLRKMVIDMVLATDMSKHMTLLADLKTMVETKKVTSSGVLLLDNYSDRIQVLRNMVHCADLSNPTKPLELYRQWTDRIMAEFFQQGDRERERGMEISPMCDKHTASVEKSQVGFIDYIVHPLWETWADLVHPDAQDILDTLEDNRDWYHSAIRQSPSPTLEEEPGVLSDPALPDKFQFELTLEEEDEEDSLEVPGLPCTEETLLAPHDTRAQAMEQSKVKGQSPAVVEVAESLKQETASAHGAPEESAEAVGHSFSLETSILPDLRTLSPSEEAQGLLGLPSMAAEVEAPRDHLAAMRACSACSGTSGDNSAVISAPGRWGSGGDPA
# Columns and labels:
# NIH3T3p75NTR cells [1] = test: Competitive binding cAMP ELISA; type: cell-based; details: for intracellular cAMP levels in NIH3T3p75NTR cells: 16 h, PTX 100 ng/ml, IBMX 500 μM, PDE1 inh. 18.7 μM, EHNA 80 μM, trequinsin 100 nM, rolipram 10 μM, PDE5 inh. 23 μM
# Description: […] fibroblasts or 500,000 SCs were lysed in 0.1 N HCl solution and cAMP was measured using a competitive binding cAMP ELISA (Assay Designs). Cells were treated with 100 ng/ml PTX for 16 h. […] Cells were treated with forskolin in the presence of the inhibitors for 1 h. […] For the qualitative and quantitative PKA assay (Promega), cells were treated with 10 μM forskolin for 30 min, lysed in 1% NP-40 buffer with 150 mM NaCl, 50 mM Tris, and 1 mM EGTA, and protein concentration was determined using the Bradford Assay (Bio-Rad Laboratories). 1 μg was loaded into the PKA assay reaction mix according to the manufacturer's protocol (Promega).
# NIH3T3p75NTR cells [2] = test: Quantification of tPA activity; type: cell-based; details: 10 μM forskolin 16 h; 200 nM KT5720; IBMX; rolipram
# Description: (§1) Quantification of tPA and uPA activity in SC and fibroblast in lysates and supernatants was performed according to the directions of the activity assay kits from American Diagnostica and Chemicon, respectively. To elevate cAMP cells were treated either with 2 mM db-cAMP (Sigma-Aldrich) or with 10 μM forskolin (Sigma-Aldrich) for 16 h. To block PKA activity, cells were treated with 200 nM KT5720 (Calbiochem).
# NIH3T3 cells [3] = test: Quantification of tPA activity; type: cell-based; details: 10 μM forskolin 16 h; 200 nM KT5720; IBMX
# Description: as §1
# NIH3T3 cells [4] = test: RT-PCR / real-time PCR of tPA and PAI-1 RNA; type: cell-based
# Description: RT-PCR was performed as described previously (Akassoglou et al., 2002). Primers for tPA, uPA, and PAI-1 genes were used as described previously (Yamamoto and Loskutoff, 1996). Real-time PCR was performed using the Opticon DNA Engine 2 (MJ Research) and the Quantitect SYBR Green PCR kit (QIAGEN). Results were analyzed with Opticon 2 software using the comparative Ct method as described previously (Livak and Schmittgen, 2001). Data were expressed as ΔΔCt for the tPA gene normalized against GAPDH.
# NIH3T3p75NTR cells [5] = test: Fibrin degradation assay on 3D fibrin gel; type: cell-based; details: 2 mM db-cAMP
# Description: as §1
# (§2) Coating with fibrin was prepared as described previously (Lansink et al., 1998). To quantitate fibrin degradation, the supernatant was aspirated and the remaining gel was weighed using an analytical balance. Decrease of gel weight corresponded to increased fibrin gel degradation.
# tPA = target: T1, tPA (Mus musculus, UniProt P11214); test: In situ zymography of crushed sciatic nerve; type: biochemical; details: injured sciatic nerve of p75NTR−/− mice, in the presence of plasminogen
# T1 construct: from tissue; host or cells: crushed sciatic nerve of p75NTR-/- mice (C57Bl/6 background)
# T1 sequence (P11214 33-559): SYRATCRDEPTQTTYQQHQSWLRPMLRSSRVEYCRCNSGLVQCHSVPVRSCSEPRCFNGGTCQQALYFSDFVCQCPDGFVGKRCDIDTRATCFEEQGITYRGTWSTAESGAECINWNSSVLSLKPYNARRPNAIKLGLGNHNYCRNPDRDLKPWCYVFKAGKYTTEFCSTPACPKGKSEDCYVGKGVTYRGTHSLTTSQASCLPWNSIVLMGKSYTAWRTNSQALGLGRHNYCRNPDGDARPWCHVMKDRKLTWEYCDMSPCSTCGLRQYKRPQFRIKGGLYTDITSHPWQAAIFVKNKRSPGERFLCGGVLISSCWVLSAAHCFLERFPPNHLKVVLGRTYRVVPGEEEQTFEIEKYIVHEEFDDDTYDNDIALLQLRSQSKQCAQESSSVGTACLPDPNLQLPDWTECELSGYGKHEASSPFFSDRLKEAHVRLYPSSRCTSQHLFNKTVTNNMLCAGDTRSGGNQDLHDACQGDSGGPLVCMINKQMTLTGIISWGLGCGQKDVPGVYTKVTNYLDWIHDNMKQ
# Description: In situ zymographies were performed as described previously (Akassoglou et al., 2000). Quantification of in situ zymographies was performed by measuring the area of the lytic zone surrounding each nerve, and dividing that value by the area of the nerve. Images were collected after 8 h of incubation for the sciatic nerve and 4 h of incubation for the lung. For cell zymographies, cultures were washed four times with PBS/BSA and overlaid with 200 μl of Dulbecco's […] medium containing 1% LMP agarose, 2.5% boiled nonfat milk, and 25 μg/ml human plasminogen. The overlay was allowed to harden, and plates were incubated in a cell culture incubator at 37° C. Pictures of lytic zones were taken using an inverted microscope under dark field (Carl Zeiss Microlmaging, Inc.).
# NIH3T3 cells [6] = test: Fibrin degradation assay on 3D fibrin gel; type: cell-based
# Description: as §2
# wt and p75NTR−/− SCs = test: Quantification of tPA activity in primary Schwann cells; type: cell-based, mouse; details: 10 μM forskolin, 100 ng/ml NGF, 50 ng/ml BDNF, 16 h
# Description: as §1
# Murine SCs were isolated as described previously (Syroid et al., 2000). NIH3T3 or HEK293 cells were cotransfected either with p75NTR FL, ICD or deletion constructs, and PDE4A5 cDNAs using Lipofectamine 2000 (Invitrogen) as described in the Results section. CGNs were isolated from P10 animals (Yamashita and Tohyama, 2003). CGNs were lysed immediately for co-IP, without plating. siRNA directed against p75NTR (Dharmacon; SMART Pool reagent, Cat. M-080041-00; Cat. M-009340) was transfected into SCs and NIH3T3p75NTR cells using Dharmafect (Dharmacon).
# [7] = target: p75 neurotrophin receptor (p75NTR), stably expressed in NIH3T3p75NTR cells
molecule,measurement,setting,value
"CCCCCC[C@@H]([C@@H](C)O)n1cnc2c(N)ncnc21 (racemic) [EHNA, erythro-9-(2-Hydroxy-3-nonyl)adenine]",intracellular cAMP levels in NIH3T3p75NTR cells,NIH3T3p75NTR cells [1],only IBMX (P<0.0001) and rolipram (P<0.0001) increase
"COc1ccc2ncnc(NCc3ccc4c(c3)OCO4)c2c1 [4-{[3′,4′-(Methylenedioxy)benzyl]amino}-6-methoxyquinazoline]",intracellular cAMP levels in NIH3T3p75NTR cells,NIH3T3p75NTR cells [1],only IBMX (P<0.0001) and rolipram (P<0.0001) increase
"COCc1nc2c([nH]1)c(=O)n(C)c(=O)n2CC(C)C [8-Methoxymethyl-IBMX, 8-methoxymethyl-3-isobutyl-1-methylxanthine]",intracellular cAMP levels in NIH3T3p75NTR cells,NIH3T3p75NTR cells [1],only IBMX (P<0.0001) and rolipram (P<0.0001) increase
CCCCCCOC(=O)[C@]1(O)C[C@@H]2O[C@@]1(C)n1c3ccccc3c3c4c(c5c6ccccc6n2c5c31)C(=O)NC4 [KT5720],tPA activity in NIH3T3p75NTR cells,NIH3T3p75NTR cells [2],decrease of tPA activity
same,tPA activity in NIH3T3 cells,NIH3T3 cells [3],decrease of tPA activity; also recorded: decreases tPA activity
same,tPA mRNA in NIH3T3 cells,NIH3T3 cells [4],decreases tPA transcript; also recorded: decreases tPA RNA
"CCCC(=O)Nc1ncnc2c1ncn2[C@@H]1O[C@@H]2COP(=O)(O)O[C@H]2[C@H]1OC(=O)CCC [db-cAMP, dibutyryl-cAMP]",fibrinolysis in NIH3T3p75NTR cells,NIH3T3p75NTR cells [5],induces fibrinolysis; also recorded: overcomes the inhibitory effect of p75NTR
Cl.Cl.N=C(N)c1ccc(C=C2CCCCC(=Cc3ccc(C(=N)N)cc3)C2=O)cc1 [tPASTOP],proteolytic activity (in situ zymography),tPA,blocks proteolytic activity
COc1cc2c(cc1OC)-c1c/c(=N\c3c(C)cc(C)cc3C)n(C)c(=O)n1CC2 [trequinsin],intracellular cAMP levels in NIH3T3p75NTR cells,NIH3T3p75NTR cells [1],only IBMX (P<0.0001) and rolipram (P<0.0001) increase
Aprotinin,fibrin degradation by NIH3T3 cells,NIH3T3 cells [6],completely inhibits fibrin degradation
NGF: nerve growth factor,"intracellular cAMP levels in NIH3T3p75NTR cells, neurotrophins or their inhibition","NIH3T3p75NTR cells [1]; 100 ng/ml NGF, 50 ng/ml BDNF, 750 ng/ml FcTrkB, 1.35 ug/ml Fcp75NTR, 1 h",does not affect the p75NTR-mediated suppression of cAMP
same,tPA activity in SCs,wt and p75NTR−/− SCs,do not affect activity of tPA; also recorded: has no effect on tPA
pertussis toxin [PTX],intracellular cAMP levels in NIH3T3p75NTR cells,NIH3T3p75NTR cells [1],does not rescue the p75NTR-mediated down-regulation of cAMP; also recorded: only IBMX (P<0.0001) and rolipram (P<0.0001) increase
B1,tPA activity in SCs,wt and p75NTR−/− SCs,do not affect activity of tPA; also recorded: has no effect on tPA
B2,FRET emission ratio change of pm-AKAR2.2 in response to forskolin (membrane-associated PKA activity),[7],"NIH3T3p75NTR cells show an attenuated response, revealing reduced PKA activity at the plasma membrane"
